pEC50, pIC50: −log10 of the molar value. Read-outs that look alike come from different tables or passages of the source.
Legend:
[1] = tested on: Human breast cancer cell line T47D; assay: Potentiation of MMS induced apoptosis, cell based caspase-3 activity assay; conditions: read-out: Compounds potentiate the apoptosis inducing activity of MMS (EC50);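 further: Caspase-3 activity in cell lysates measured by fluorescence (RFU), EC50 fitted from sigmoidal curve of signal versus log compound concentration in presence of MMS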
Procedure: Human breast cancer cell line T47D (Nanjing KeyGEN Biotech. CO., LTD.) was used to determine the potentiation effect of PARP-1 inhibitors on the apoptosis inducing activity of DNA damaging anticancer drugs such as MMS. Intracellular caspase-3 activity was used to measure cell apoptosis. Briefly, T47D cells were grown in DMEM/F12 cell culture medium (Hyclone) supplemented with 0.2 U/ml insulin (Genview) and 10% FBS (Hyclone). A day before experiment, 20000 of T47D cells were seeded to each well of a 96-well cell culture plate and maintained at 37° C. and 5% CO2 in a cell culture incubator overnight. On the day of experiment, cell culture medium was removed. […] The serial dilutions of the compounds to be tested and the reference compounds were made in a 1:3 and 1:10 fashion in DMSO. The 10-fold compound solutions were made by mixing 10 μl DMSO serial dilution solutions with 90 μl fresh growth medium. Twenty four hours later, the cells in the 96-well plates were centrifuged at 1000 g for 5 min and the supernatants were removed. 50 μl lysis buffer (10 mM Tris, pH 7.5, 0.1M NaCl, 1 mM EDTA, 0.01% Triton X-100) was added to each well and the plates were shaked horizontally for 30 min at 4° C. After centrifugation at 1000 g at 4° C. for 10 min, 20 μl of supernatant was transferred from each well to a corresponding well in a 384-well black plate. […] The plates were shaked to uniformly mix the wells and incubated at 37° C. for 3 h. […] The caspase-3 activity induced by the compounds was expressed as a relative fluorescence unit (RFU). The obtained fluorescence readings were analyzed using a commercial graphic software (GraphPad Prism 5) and plotted against the Log value of the compound concentrations. The EC50 values were obtained by fitting the data points with the equation of Y (fluorescence reading)=minimal fluorescence reading+(maximal fluorescence reading−minimal fluorescence reading)/(1+10̂(LogEC50−LogC)), where C is the concentration of the testing compound. The EC50 values were obtained by fitting the data points with S-shaped dose response curve equation (GraphPad Software, Inc).

[2] = tested on: BRCA-2 deficient CAPAN-1 human pancreatic cancer cells; assay: Cell growth inhibition of BRCA-2 deficient CAPAN-1 cells, MTT based cell viability assay; conditions: read-out: Growth inhibition of CAPAN-1 cells by compounds (IC50)
Procedure: BRCA-2 deficient CAPAN-1 human pancreatic cancer cells were used to test the growth inhibiting activity of substituted 1-(arylmethyl)-5,6,7,8-tetrahydroquinazoline-2,4(1H,3H)-diones. Briefly, CAPAN-1 cells are grown and maintained in IMEM medium supplemented with 20% FBS. The assay takes 10 days to finish. On day 1, 6000 CAPAN-1 cells are seeded to each well of a 96-well plate. The cells are incubated at 37° C. in a CO2 cell culture incubator overnight. […] Ten-fold compound solutions were made by mixing 10 μl DMSO serial dilution solutions with 90 μl fresh growth medium. The cell culture medium was removed and 180 μl fresh media with FBS and 20 μl of compound solutions were added to each well. The final concentration of DMSO was 1%. Cells were then returned to the CO2 cell culture incubator and incubated at 37° C. for two days (day 3 and day 4). On day 5, the same procedure as what was done on day 2 was repeated. Cell culture medium was removed and fresh medium containing serial dilutions of compounds or reference compounds were added. Cells were returned to the CO2 cell culture incubator and incubated for two more days. On day 8, same procedure was repeated again and fresh medium containing the testing compounds or reference compounds were added and incubated for an additional 2 days. On day 10, 20 μl of MTT reagent (5 mg/ml) was added to each well of the cell culture plate and incubated for 4 h. The cell culture media was removed and 100 μl DMSO was added to each well. The 96-well cell culture plates were shaked horizontally for 10 min and readed in a Varioskan Flash plate reader (Thermo Fisher Scientific) at 520 and 690 nm. The obtained 520 nm absorbance readings substracting corresponding 690 nm reading were analyzed using a commercial graphic software (GraphPad Prism 5) and plotted against the Log scale of the compound concentrations.

[3] = tested on: SW620 human colorectal cancer cells; assay: Potentiation of the growth inhibiting activity of MMS, MTT based cell viability assay; conditions: read-out: Compounds potentiate the growth inhibiting activity of MMS (IC50)
Procedure: The synergistic potentiation effect of PARP inhibitors on the growth inhibiting activity of DNA damaging anticancer drugs such as methyl methanesulphonate (MIMS) were measured with SW620 human colorectal cancer cells (Shanghai Cancer Institute) using a MTT based cell viability assay. SW620 cells were grown and maintained in RPMI1640 (Gibco) medium supplemented with 10% FBS (Hyclone). In the first day of experiment, 4000 cells were seeded to each well of a 96-well cell culture plate and incubated at 37° C. and 5% CO2 in a cell culture incubator overnight. In the next day, the cell culture medium was removed. […] The serial dilutions of the reference compounds and the compounds to be tested were made with a 1:3 and 1:10 fashion in DMSO. The 10-fold concentrated solutions of these compounds were made by mixing 10 μl of the serial dilutions in DMSO with 90 μl fresh medium. The final concentration of DMSO in the medium was 1%. The cells were incubated at 37° C. in 5% CO2 cell culture incubator for additional 5 days (120 hours). Afterwards, the 96-well cell culture plate was taken out and 20 μl of MTT solution was added to each well and incubated at 37° C. for 4 h. The medium was removed and 100 μl DMSO was added to each well. The 96-well cell culture plates were shaked adequately for 10 min and readed in a Varioskan Flash plate reader (Thermo Fisher Scientific) at 520 and 690 nm. The data were analyzed by Prism 5 software (GraphPad). The obtained 520 nm absorbance readings substracting corresponding 690 nm reading were analyzed and plotted against the Log scale of the compound concentrations.

[4] = target: T1, PARP-1 enzyme (Homo sapiens, UniProt P09874); assay: PARP-1 enzymatic activity assay (Trevigen 96-well kit); type: biochemical; conditions: 0.5 unit PARP-1, histone pre-coated plate, 60 min room temperature; read-out: The inhibitory effect of compounds on PARP-1 enzymatic activity (IC50)
T1 construct: purchased Trevigen, Inc. 4676-096-K
T1 sequence (P09874 whole entry): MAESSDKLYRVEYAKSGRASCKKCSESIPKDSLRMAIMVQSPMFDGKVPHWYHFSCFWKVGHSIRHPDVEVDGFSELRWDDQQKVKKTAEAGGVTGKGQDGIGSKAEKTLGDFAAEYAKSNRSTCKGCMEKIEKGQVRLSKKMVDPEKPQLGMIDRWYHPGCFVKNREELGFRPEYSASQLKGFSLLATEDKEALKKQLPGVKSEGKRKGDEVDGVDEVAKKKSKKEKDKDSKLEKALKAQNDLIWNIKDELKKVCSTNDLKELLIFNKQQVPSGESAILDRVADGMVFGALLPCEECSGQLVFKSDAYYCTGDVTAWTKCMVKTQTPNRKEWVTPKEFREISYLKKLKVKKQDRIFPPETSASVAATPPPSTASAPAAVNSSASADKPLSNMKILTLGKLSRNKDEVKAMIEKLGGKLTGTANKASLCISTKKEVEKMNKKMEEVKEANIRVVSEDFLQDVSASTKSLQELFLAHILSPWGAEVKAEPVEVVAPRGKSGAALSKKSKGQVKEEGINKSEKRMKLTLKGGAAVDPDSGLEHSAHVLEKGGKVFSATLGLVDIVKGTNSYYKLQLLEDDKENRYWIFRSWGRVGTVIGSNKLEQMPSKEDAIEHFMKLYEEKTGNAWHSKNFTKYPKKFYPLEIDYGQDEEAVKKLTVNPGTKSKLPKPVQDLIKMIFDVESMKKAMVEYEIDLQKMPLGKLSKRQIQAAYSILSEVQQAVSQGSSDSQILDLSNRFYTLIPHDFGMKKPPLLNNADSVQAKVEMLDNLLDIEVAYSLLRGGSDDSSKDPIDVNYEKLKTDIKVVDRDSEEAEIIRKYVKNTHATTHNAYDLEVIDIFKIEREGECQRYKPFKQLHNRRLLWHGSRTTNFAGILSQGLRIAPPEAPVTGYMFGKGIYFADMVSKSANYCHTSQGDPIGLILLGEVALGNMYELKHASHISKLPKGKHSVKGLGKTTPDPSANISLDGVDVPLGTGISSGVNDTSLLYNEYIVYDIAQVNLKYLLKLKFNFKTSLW
Procedure: Briefly, PARP-1 catalyzes the NAD-dependent addition of poly(ADP-ribose) to its nuclear protein substrates such as histones. The assay kit measures the incorporation of biotynylated poly(ADP-ribose) onto histone proteins in a 96-well format.
To each well of histone pre-coated plate 10 μl of 5-fold concentrations of testing compounds or reference compound, 15 μl of PARP-1 enzyme (0.5 unit) and 25 μl reaction buffer were added and the plates were incubated at room temperature for 60 min. The plates were washed with 200 μl PBS with 0.1% Triton X-100 twice and then with 200 μl PBS twice. The residual liquid was removed by carefully tapping the plates on paper towels. Equal volumes of PeroxyGlow™ solution A and B were mixed and 100 μl of the solution was added to each well. The luminescence readings were read immediately in a Varioskan Flash plate reader (Thermo Fisher Scientific).

[5] = T47D cells, 100 nM MMS, 24 hours, intracellular caspase-3 activity
[6] = BRCA-2 deficient CAPAN-1 cells, 10 day assay, MTT
[7] = SW620 cells, medium containing 1.5 μg/ml MMS, 5 days (120 hours), MTT

| SMILES | pEC50 ([1]; Homo sapiens, T47D, 24 h) | pIC50 ([2]; Homo sapiens, CAPAN-1, 240 h) | pIC50 ([3]; Homo sapiens, SW-620, 120 h) | pEC50 [1, 5] | pIC50 [2, 6] | pIC50 [3, 7] | pIC50 [4] |
| --- | --- | --- | --- | --- | --- | --- | --- |
| O=C(c1cc(Cc2n[nH]c(=O)c3ccccc23)ccc1F)N1CCN(C(=O)C2CC2)CC1 [AZD2281, olaparib, reference compound] | 7.85 | 5.97 | 7.34 | – | – | – | – |
| O=C(c1cc(Cn2c3c(c(=O)[nH]c2=O)CCCC3)ccc1F)N1CCN(c2nccs2)CC1 [Example 23, 1-(4-Fluoro-3-(4-(thiazol-2-yl)piperazine-1-carbonyl)benzyl)-5,6,7,8-tetrahydroquinazoline-2,4(1H,3H)-dione] | 8.80 | 7.31 | 8.82 | – | – | – | – |
| O=C(c1ccc(F)c(Cn2c3c(c(=O)[nH]c2=O)CCCC3)c1)N1CCN(c2ccccn2)CC1 [Example 47, 1-(6-Fluoro-3-(4-(pyridin-2-yl)piperazine-1-carbonyl)benzyl)-5,6,7,8-tetrahydroquinazoline-2,4(1H,3H)-dione] | 8.19 | 6.94 | 8.34 | – | – | – | – |
| O=C(c1cc(Cn2c3c(c(=O)[nH]c2=O)CCCC3)ccc1F)N1CCN(C(=O)C2CCC2)CC1 [Example 22, 1-(4-Fluoro-3-(4-(cyclobutylcarbonyl)piperazine-1-carbonyl)benzyl)-5,6,7,8-tetrahydroquinazoline-2,4(1H,3H)-dione] | 8.55 | 6.93 | 8.77 | – | – | – | – |
| O=C(c1cc(Cn2c3c(c(=O)[nH]c2=O)CCCC3)ccc1F)N1CCN(C2CCCCC2)CC1 [Example 30, 1-(4-Fluoro-3-(4-cyclohexylpiperazine-1-carbonyl)benzyl)-5,6,7,8-tetrahydroquinazoline-2,4(1H,3H)-dione] | 7.49 | 5.91 | 7.92 | – | – | – | – |
| O=C(c1ccsc1)N1CCN(C(=O)c2cc(Cn3c4c(c(=O)[nH]c3=O)CCCC4)ccc2F)CC1 [Example 36, 1-(4-Fluoro-3-(4-(thiophene-3-carbonyl)piperazine-1-carbonyl)benzyl)-5,6,7,8-tetrahydroquinazoline-2,4(1H,3H)-dione] | 7.89 | 6.66 | 8.47 | – | – | – | – |
| O=C(c1cccc(Cn2c3c(c(=O)[nH]c2=O)CCCC3)c1)N1CCN(c2ccccn2)CC1 [Example 11, 1-(3-(4-(Pyridin-2-yl)piperazine-1-carbonyl)benzyl)-5,6,7,8-tetrahydroquinazoline-2,4(1H,3H)-dione] | 7.51 | 7.49 | 8.16 | – | – | – | – |
| O=C(c1ccco1)N1CCN(C(=O)c2cc(Cn3c4c(c(=O)[nH]c3=O)CCCC4)ccc2F)CC1 [Example 27, 1-(4-Fluoro-3-(4-(furan-2-carbonyl)piperazine-1-carbonyl)benzyl)-5,6,7,8-tetrahydroquinazoline-2,4(1H,3H)-dione] | 7.24 | 7.09 | 8.01 | – | – | – | – |
| O=C(c1cc(Cn2c3c(c(=O)[nH]c2=O)CCCC3)ccc1F)N1CCN(c2ccccn2)CC1 [Example 26, 1-(4-Fluoro-3-(4-(pyridin-2-yl)piperazine-1-carbonyl)benzyl)-5,6,7,8-tetrahydroquinazoline-2,4(1H,3H)-dione] | 8.25 | 7.03 | 8.64 | – | – | – | – |
| O=C(c1cccs1)N1CCN(C(=O)c2cc(Cn3c4c(c(=O)[nH]c3=O)CCCC4)ccc2F)CC1 [Example 21, 1-(4-Fluoro-3-(4-(thiophene-2-carbonyl)piperazine-1-carbonyl)benzyl)-5,6,7,8-tetrahydroquinazoline-2,4(1H,3H)-dione] | 8.55 | 7.00 | 8.89 | – | – | – | – |
| O=C(c1ccoc1)N1CCN(C(=O)c2cc(Cn3c4c(c(=O)[nH]c3=O)CCCC4)ccc2F)CC1 [Example 35, 1-(4-Fluoro-3-(4-(furan-3-carbonyl)piperazine-1-carbonyl)benzyl)-5,6,7,8-tetrahydroquinazoline-2,4(1H,3H)-dione] | 7.92 | 6.55 | 8.40 | – | – | – | – |
| O=C(c1cc(Cn2c3c(c(=O)[nH]c2=O)CCCC3)ccc1F)N1CCN(C(=O)C2CCCO2)CC1 (stereo not shown) [Example 39, 1-(4-Fluoro-3-(4-(tetrahydrofuran-2-carbonyl)piperazine-1-carbonyl)benzyl)-5,6,7,8-tetrahydroquinazoline-2,4(1H,3H)-dione] | 7.49 | 6.82 | 7.82 | – | – | – | – |
| O=C(c1cc(Cn2c3c(c(=O)[nH]c2=O)CCCC3)ccc1F)N1CCN(c2ccccc2)CC1 [Example 33, 1-(4-Fluoro-3-(4-phenylpiperazine-1-carbonyl)benzyl)-5,6,7,8-tetrahydroquinazoline-2,4(1H,3H)-dione] | 6.73 | 5.44 | 8.12 | – | – | – | – |
| O=C(c1ccc(F)c(Cn2c3c(c(=O)[nH]c2=O)CCCC3)c1)N1CCN(C(=O)C2CCCC2)CC1 [Example 42, 1-(6-Fluoro-3-(4-(cyclopentylcarbonyl)piperazine-1-carbonyl)benzyl)-5,6,7,8-tetrahydroquinazoline-2,4(1H,3H)-dione] | 8.40 | 6.84 | 8.32 | – | – | – | – |
| O=C(c1cc(Cn2c3c(c(=O)[nH]c2=O)CCCC3)ccc1F)N1CCN(C(=O)C2CCCC2)CC1 [Example 25, 1-(4-Fluoro-3-(4-(cyclopentylcarbonyl)piperazine-1-carbonyl)benzyl)-5,6,7,8-tetrahydroquinazoline-2,4(1H,3H)-dione] | 8.21 | 7.16 | 8.72 | – | – | – | – |
| O=C(c1cc(Cn2c3c(c(=O)[nH]c2=O)SCCC3)ccc1F)N1CCN(c2ncccn2)CC1 [Example 60] | – | – | – | 7.52 | 6.12 | 8.12 | – |
| O=C(c1ccc(F)c(Cn2c3c(c(=O)[nH]c2=O)CCCC3)c1)N1CCN(C(=O)C2CCC2)CC1 [Example 50, 1-(6-Fluoro-3-(4-(cyclobutylcarbonyl)piperazine-1-carbonyl)benzyl)-5,6,7,8-tetrahydroquinazoline-2,4(1H,3H)-dione] | 7.92 | 6.00 | 7.80 | – | – | – | – |
| O=C(c1ccc(F)c(Cn2c3c(c(=O)[nH]c2=O)CCCC3)c1)N1CCN(c2nccs2)CC1 [Example 51, 1-(6-Fluoro-3-(4-(thiazol-2-yl)piperazine-1-carbonyl)benzyl)-5,6,7,8-tetrahydroquinazoline-2,4(1H,3H)-dione] | 7.96 | 6.87 | 7.89 | – | – | – | – |
| O=C(c1cc(Cn2c3c(c(=O)[nH]c2=O)CCCC3)ccc1F)N1CCN(C(=O)C2CCCCC2)CC1 [Example 24, 1-(4-Fluoro-3-(4-(cyclohexylcarbonyl)piperazine-1-carbonyl)benzyl)-5,6,7,8-tetrahydroquinazoline-2,4(1H,3H)-dione] | 8.00 | 7.24 | 8.44 | – | – | – | – |
| O=C(c1cc(Cn2c3c(c(=O)[nH]c2=O)CCCC3)ccc1F)N1CCN(c2ncccn2)CC1 [Example 20] | 9.00 | 7.77 | 9.08 | – | – | – | 8.59 |
| O=C(c1cccc(Cn2c3c(c(=O)[nH]c2=O)CCCC3)c1)N1CCN(C(=O)C2CCCC2)CC1 [Example 9, 1-(3-(4-(Cyclopentylcarbonyl)piperazine-1-carbonyl)benzyl)-5,6,7,8-tetrahydroquinazoline-2,4(1H,3H)-dione] | 7.04 | 6.97 | 7.92 | – | – | – | – |
| O=C(c1ccc(F)c(Cn2c3c(c(=O)[nH]c2=O)CCCC3)c1)N1CCN(c2ncccn2)CC1 [Example 41] | – | – | – | 8.66 | 7.72 | 8.39 | – |
| O=C(c1cc(Cn2c3c(c(=O)[nH]c2=O)CCCC3)ccc1F)N1CCN(c2cnccn2)CC1 [Example 28, 1-(4-Fluoro-3-(4-(pyrazin-2-yl)piperazine-1-carbonyl)benzyl)-5,6,7,8-tetrahydroquinazoline-2,4(1H,3H)-dione] | 7.85 | 6.53 | 8.31 | – | – | – | – |
| O=C(c1cc(Cn2c3c(c(=O)[nH]c2=O)CCCC3)ccc1F)N1CCN(C(=O)C2CCOCC2)CC1 [Example 53, 1-(4-Fluoro-3-(4-(tetrahydro-2H-pyran-4-carbonyl)piperazine-1-carbonyl)benzyl)-5,6,7,8-tetraquinazoline-2,4(1H,3H)-dione] | – | – | – | 7.01 | 6.57 | 7.21 | – |

Reference: patent US20140275711A1, “1-(Arylmethyl)-5,6,7,8-tetrahydroquinazolline-2,4-diones and Analogs and the Use Thereof” (Impact Therapeutics, Inc., priority 2011, published 2014)
